According to patent publication US20100184699A1, “Peptide Derived From Prostate-Related Protein As Cancer Vaccine Candidate For Prostate Cancer Patient Who Is Positive For Hla-A3 Super-Type Allele Molecule” (priority 2005, published 2010):

Tested on: peptide-specific IgG in plasma of prostate cancer patients and healthy donors
Test: Detection of peptide-specific IgG in plasma by ELISA
Type: binding, human
Settings: for IgG reactive to peptide in plasma: 1:100-diluted plasma
[1] = Prostate cancer patient 12, A11
[2] = Prostate cancer patient 20, A33
[3] = Prostate cancer patient 14, A33
[4] = Prostate cancer patient 17, A33
[5] = Prostate cancer patient 19, A33

Substance | IgG reactive to peptide in plasma, Total (positive/tested) (Healthy donors) | IgG reactive to peptide in plasma (Prostate cancer patient 6, A31) | IgG reactive to peptide in plasma (Prostate cancer patient 8, A11) | IgG reactive to peptide in plasma (Prostate cancer patient 9, A11) | IgG reactive to peptide in plasma [1] | IgG reactive to peptide in plasma [2] | IgG reactive to peptide in plasma, Total (positive/tested) (Prostate cancer patients) | IgG reactive to peptide in plasma (Prostate cancer patient 4, A31) | IgG reactive to peptide in plasma (Prostate cancer patient 5, A31) | IgG reactive to peptide in plasma [3] | IgG reactive to peptide in plasma [4] | IgG reactive to peptide in plasma [5] | IgG reactive to peptide in plasma (Prostate cancer patient 2, A31) | IgG reactive to peptide in plasma (Prostate cancer patient 7, A11) | IgG reactive to peptide in plasma (Prostate cancer patient 10, A11) | IgG reactive to peptide in plasma (Prostate cancer patient 13, A11) | IgG reactive to peptide in plasma (Prostate cancer patient 18, A33)
PSMA 247-265 (NLPGGGVQRGNILNLNGAG; UniProt Q04609 247-265, looked up, fragment) | 0/9 | + (IgG reactive to a corresponding peptide was judged to be positive when a difference of the optical density (OD) in a 1:100-diluted plasma was more than 100) | + (IgG reactive to a corresponding peptide was judged to be positive when a difference of the optical density (OD) in a 1:100-diluted plasma was more than 100) | + (IgG reactive to a corresponding peptide was judged to be positive when a difference of the optical density (OD) in a 1:100-diluted plasma was more than 100) | + (IgG reactive to a corresponding peptide was judged to be positive when a difference of the optical density (OD) in a 1:100-diluted plasma was more than 100) | + (IgG reactive to a corresponding peptide was judged to be positive when a difference of the optical density (OD) in a 1:100-diluted plasma was more than 100) | 6/20 | – | – | – | – | – | – | – | – | – | –
RNKSVILLGR (PSA 68-77) [PSA-derived peptide] | 0/9 | – | – | – | – | – | 0/20 | – | – | – | – | – | – | – | – | – | –
PSMA 456-463 (IEGNYTLR; UniProt Q04609 456-463, looked up, fragment) | 0/9 | + (IgG reactive to a corresponding peptide was judged to be positive when a difference of the optical density (OD) in a 1:100-diluted plasma was more than 100) | – | + (IgG reactive to a corresponding peptide was judged to be positive when a difference of the optical density (OD) in a 1:100-diluted plasma was more than 100) | + (IgG reactive to a corresponding peptide was judged to be positive when a difference of the optical density (OD) in a 1:100-diluted plasma was more than 100) | + (IgG reactive to a corresponding peptide was judged to be positive when a difference of the optical density (OD) in a 1:100-diluted plasma was more than 100) | 9/20 | + (IgG reactive to a corresponding peptide was judged to be positive when a difference of the optical density (OD) in a 1:100-diluted plasma was more than 100) | + (IgG reactive to a corresponding peptide was judged to be positive when a difference of the optical density (OD) in a 1:100-diluted plasma was more than 100) | + (IgG reactive to a corresponding peptide was judged to be positive when a difference of the optical density (OD) in a 1:100-diluted plasma was more than 100) | + (IgG reactive to a corresponding peptide was judged to be positive when a difference of the optical density (OD) in a 1:100-diluted plasma was more than 100) | + (IgG reactive to a corresponding peptide was judged to be positive when a difference of the optical density (OD) in a 1:100-diluted plasma was more than 100) | – | – | – | – | –
GLPDRPFYR [PSMA 680-688] | 0/9 | + (IgG reactive to a corresponding peptide was judged to be positive when a difference of the optical density (OD) in a 1:100-diluted plasma was more than 100) | + (IgG reactive to a corresponding peptide was judged to be positive when a difference of the optical density (OD) in a 1:100-diluted plasma was more than 100) | + (IgG reactive to a corresponding peptide was judged to be positive when a difference of the optical density (OD) in a 1:100-diluted plasma was more than 100) | + (IgG reactive to a corresponding peptide was judged to be positive when a difference of the optical density (OD) in a 1:100-diluted plasma was more than 100) | + (IgG reactive to a corresponding peptide was judged to be positive when a difference of the optical density (OD) in a 1:100-diluted plasma was more than 100) | 12/20 | + (IgG reactive to a corresponding peptide was judged to be positive when a difference of the optical density (OD) in a 1:100-diluted plasma was more than 100) | – | + (IgG reactive to a corresponding peptide was judged to be positive when a difference of the optical density (OD) in a 1:100-diluted plasma was more than 100) | – | – | + (IgG reactive to a corresponding peptide was judged to be positive when a difference of the optical density (OD) in a 1:100-diluted plasma was more than 100) | + (IgG reactive to a corresponding peptide was judged to be positive when a difference of the optical density (OD) in a 1:100-diluted plasma was more than 100) | + (IgG reactive to a corresponding peptide was judged to be positive when a difference of the optical density (OD) in a 1:100-diluted plasma was more than 100) | + (IgG reactive to a corresponding peptide was judged to be positive when a difference of the optical density (OD) in a 1:100-diluted plasma was more than 100) | –
SLYTKVVHYR [PSA 241-250] | 0/9 | – | – | – | – | – | 0/20 | – | – | – | – | – | – | – | – | – | –
EYFVEMYYR (PAP 324-332) [PAP-derived peptide] | 0/9 | – | – | – | – | – | 1/20 | – | – | + (IgG reactive to a corresponding peptide was judged to be positive when a difference of the optical density (OD) in a 1:100-diluted plasma was more than 100) | – | – | – | – | – | – | –
TLRGAVEPDR [PSMA 361-370] | 0/9 | + (IgG reactive to a corresponding peptide was judged to be positive when a difference of the optical density (OD) in a 1:100-diluted plasma was more than 100) | + (IgG reactive to a corresponding peptide was judged to be positive when a difference of the optical density (OD) in a 1:100-diluted plasma was more than 100) | + (IgG reactive to a corresponding peptide was judged to be positive when a difference of the optical density (OD) in a 1:100-diluted plasma was more than 100) | + (IgG reactive to a corresponding peptide was judged to be positive when a difference of the optical density (OD) in a 1:100-diluted plasma was more than 100) | + (IgG reactive to a corresponding peptide was judged to be positive when a difference of the optical density (OD) in a 1:100-diluted plasma was more than 100) | 12/20 | + (IgG reactive to a corresponding peptide was judged to be positive when a difference of the optical density (OD) in a 1:100-diluted plasma was more than 100) | – | + (IgG reactive to a corresponding peptide was judged to be positive when a difference of the optical density (OD) in a 1:100-diluted plasma was more than 100) | + (IgG reactive to a corresponding peptide was judged to be positive when a difference of the optical density (OD) in a 1:100-diluted plasma was more than 100) | + (IgG reactive to a corresponding peptide was judged to be positive when a difference of the optical density (OD) in a 1:100-diluted plasma was more than 100) | + (IgG reactive to a corresponding peptide was judged to be positive when a difference of the optical density (OD) in a 1:100-diluted plasma was more than 100) | + (IgG reactive to a corresponding peptide was judged to be positive when a difference of the optical density (OD) in a 1:100-diluted plasma was more than 100) | – | – | + (IgG reactive to a corresponding peptide was judged to be positive when a difference of the optical density (OD) in a 1:100-diluted plasma was more than 100)
SYKHEQVYIR (PAP 96-105) [PAP-derived peptide] | 1/9 | – | – | – | – | – | 1/20 | – | – | + (IgG reactive to a corresponding peptide was judged to be positive when a difference of the optical density (OD) in a 1:100-diluted plasma was more than 100) | – | – | – | – | – | – | –
DLVYVNYAR (PSMA 173-181) [PSMA-derived peptide] | 0/9 | + (IgG reactive to a corresponding peptide was judged to be positive when a difference of the optical density (OD) in a 1:100-diluted plasma was more than 100) | – | – | + (IgG reactive to a corresponding peptide was judged to be positive when a difference of the optical density (OD) in a 1:100-diluted plasma was more than 100) | + (IgG reactive to a corresponding peptide was judged to be positive when a difference of the optical density (OD) in a 1:100-diluted plasma was more than 100) | 5/20 | + (IgG reactive to a corresponding peptide was judged to be positive when a difference of the optical density (OD) in a 1:100-diluted plasma was more than 100) | + (IgG reactive to a corresponding peptide was judged to be positive when a difference of the optical density (OD) in a 1:100-diluted plasma was more than 100) | – | – | – | – | – | – | – | –
